Test in all cases: relative viability (nuclei count vs DMSO), 5 days (fraction); higher = more cells survive
Compound in experiment [1]: COc1cc(-c2nn([C@H]3CC[C@H](N4CCN(C(C)=O)CC4)CC3)c3ncnc(N)c23)ccc1NC(=O)c1cc2ccccc2n1C + C[C@]1(O)C[C@@H](c2nc(-c3ccc4ccc(-c5ccccc5)nc4c3)c3c(N)nccn32)C1 [Linsitinib] (partner 1 µM)
The essentials: (§1)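 Lung cancer cell lines were seeded in 1536-well plates and dosed by pin tool the next day, with either a single drug or a fixed anchor-drug dose combined with five library-drug doses (not always all listed) spaced in √10 steps. Five days later, one step fixed the cells and stained their nuclei (final 0.05% Triton X-100, 1% formaldehyde, 1 ug/ml Hoechst), and nuclei were counted on 4× images. Relative viability is the nuclei count in treated wells divided by the count in vehicle wells, and each value is the median of duplicate plates.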

Compound in experiment [2]: CO[C@@H]1[C@H](N(C)C(=O)c2ccccc2)C[C@H]2O[C@]1(C)n1c3ccccc3c3c4c(c5c6ccccc6n2c5c31)C(=O)NC4 [Midostaurin] + Cc1cc(Nc2cc(N3CCN(C)CC3)nc(Sc3ccc(NC(=O)C4CC4)cc3)n2)n[nH]1 [Tozasertib] (partner 0.1 µM)
A digest of the protocol: as §1

Compound in experiment [3]: CO[C@@H]1[C@H](N(C)C(=O)c2ccccc2)C[C@H]2O[C@]1(C)n1c3ccccc3c3c4c(c5c6ccccc6n2c5c31)C(=O)NC4 [Midostaurin] + C[C@@H](Oc1cc(-c2cnn(C3CCNCC3)c2)cnc1N)c1c(Cl)ccc(F)c1Cl [Crizotinib] (partner 1 µM)
A digest of the protocol:
as §1

Compound in experiment [4]: COc1cc(-c2nn([C@H]3CC[C@H](N4CCN(C(C)=O)CC4)CC3)c3ncnc(N)c23)ccc1NC(=O)c1cc2ccccc2n1C + CC(C)C[C@H](NC(=O)[C@H](Cc1ccccc1)NC(=O)c1cnccn1)B(O)O [Bortezomib] (partner 0.002 µM)
The essentials: as §1

Compound in experiment [5]: COc1cc(-c2nn([C@H]3CC[C@H](N4CCN(C(C)=O)CC4)CC3)c3ncnc(N)c23)ccc1NC(=O)c1cc2ccccc2n1C + COc1cc2c(Oc3ccc(NC(=O)C4(C(=O)Nc5ccc(F)cc5)CC4)cc3F)ccnc2cc1OCCCN1CCOCC1 [Foretinib] (partner 0.25 µM)
A digest of the protocol:
as §1

PC-3 [JPC-3]: the relative viability in experiment [1] (first compound 0.0128 µM) stood at 1.02; in experiment [1] (first compound 0.04048 µM), 0.957; in experiment [1] (first compound 0.128 µM), 0.966; in experiment [1] (first compound 1.28 µM), 0.997; in experiment [2] (first compound 0.01 µM), 0.886; in experiment [2] (first compound 0.03162 µM) it was 0.809. Besides, the relative viability was found to be 0.865 in experiment [2] (first compound 0.1 µM); 0.867 in experiment [2] (first compound 0.3162 µM); 0.99 in experiment [3] (first compound 0.01 µM); 0.824 in experiment [3] (first compound 0.03162 µM); 0.966 in experiment [3] (first compound 0.1 µM); 0.943 in experiment [3] (first compound 0.3162 µM). Besides, the relative viability in experiment [4] (first compound 0.0128 µM) amounted to 0.94; in experiment [4] (first compound 0.04048 µM) it was 0.823; in experiment [4] (first compound 0.128 µM), 0.827; in experiment [4] (first compound 1.28 µM), 0.819; in experiment [5] (first compound 0.0128 µM) it was 1.07; in experiment [5] (first compound 0.04048 µM), 1.14. Further, the relative viability was determined as 1 in experiment [5] (first compound 0.128 µM) and 1.06 in experiment [5] (first compound 1.28 µM).

As to PC-14, the relative viability in experiment [1] (first compound 0.0128 µM) worked out at 0.929; in experiment [1] (first compound 0.04048 µM), 1.01; in experiment [1] (first compound 0.128 µM), 0.938; in experiment [1] (first compound 1.28 µM), 0.98; in experiment [2] (first compound 0.01 µM), 0.616; in experiment [2] (first compound 0.03162 µM) it was 0.574. For the same cell line, the relative viability was determined as 0.598 in experiment [2] (first compound 0.1 µM); 0.491 in experiment [2] (first compound 0.3162 µM); 0.903 in experiment [3] (first compound 0.01 µM); 0.882 in experiment [3] (first compound 0.03162 µM); 0.832 in experiment [3] (first compound 0.1 µM); 0.907 in experiment [3] (first compound 0.3162 µM). Besides, the relative viability in experiment [4] (first compound 0.0128 µM) is 0.9; in experiment [4] (first compound 0.04048 µM), 0.967; in experiment [4] (first compound 0.128 µM), 0.892; in experiment [4] (first compound 1.28 µM), 1.06; in experiment [5] (first compound 0.0128 µM) it was 0.956; in experiment [5] (first compound 0.04048 µM), 1.06. Besides, the relative viability in experiment [5] (first compound 0.128 µM) stood at 0.885; in experiment [5] (first compound 1.28 µM), 0.979.

For RERF-LC-KJ, the relative viability in experiment [1] (first compound 0.0128 µM) amounted to 0.895; in experiment [1] (first compound 0.04048 µM), 0.882; in experiment [1] (first compound 0.128 µM), 0.878; in experiment [1] (first compound 1.28 µM) it was 0.793; in experiment [2] (first compound 0.01 µM), 0.47; in experiment [2] (first compound 0.03162 µM) it was 0.464. For the same cell line, the relative viability in experiment [2] (first compound 0.1 µM) is 0.433; in experiment [2] (first compound 0.3162 µM), 0.321; in experiment [3] (first compound 0.01 µM) it was 0.892; in experiment [3] (first compound 0.03162 µM), 0.764; in experiment [3] (first compound 0.1 µM) it was 0.813; in experiment [3] (first compound 0.3162 µM), 0.811. Moreover, the relative viability in experiment [4] (first compound 0.0128 µM) stood at 1.16; in experiment [4] (first compound 0.04048 µM) it was 1.21; in experiment [4] (first compound 0.128 µM), 1.13; in experiment [4] (first compound 1.28 µM) it was 1.07; in experiment [5] (first compound 0.0128 µM) it was 0.867; in experiment [5] (first compound 0.04048 µM), 0.957. Moreover, the relative viability in experiment [5] (first compound 0.128 µM) was 0.838; in experiment [5] (first compound 1.28 µM), 0.864.

Take SK-LU-1: the relative viability worked out at 1.23 in experiment [1] (first compound 0.0128 µM); 1.26 in experiment [1] (first compound 0.04048 µM); 0.839 in experiment [1] (first compound 0.128 µM); 0.558 in experiment [1] (first compound 1.28 µM); 0.337 in experiment [2] (first compound 0.01 µM); 0.449 in experiment [2] (first compound 0.03162 µM). In addition, the relative viability in experiment [2] (first compound 0.1 µM) is 0.278; in experiment [2] (first compound 0.3162 µM) it was 0.202; in experiment [3] (first compound 0.01 µM) it was 0.913; in experiment [3] (first compound 0.03162 µM), 0.948; in experiment [3] (first compound 0.1 µM), 0.914; in experiment [3] (first compound 0.3162 µM), 0.584. Also, the relative viability in experiment [4] (first compound 0.0128 µM) stood at 1.53; in experiment [4] (first compound 0.04048 µM), 1.22; in experiment [4] (first compound 0.128 µM), 1.17; in experiment [4] (first compound 1.28 µM) it was 0.783; in experiment [5] (first compound 0.0128 µM), 0.769; in experiment [5] (first compound 0.04048 µM), 0.798. Further, the relative viability in experiment [5] (first compound 0.128 µM) was found to be 0.691; in experiment [5] (first compound 1.28 µM), 0.376.

On to SW 1573, for which the relative viability in experiment [1] (first compound 0.0128 µM) came to 0.706; in experiment [1] (first compound 0.04048 µM), 0.72; in experiment [1] (first compound 0.128 µM) it was 0.63; in experiment [1] (first compound 1.28 µM), 0.598; in experiment [2] (first compound 0.01 µM), 0.177; in experiment [2] (first compound 0.03162 µM) it was 0.187. Moreover, the relative viability in experiment [2] (first compound 0.1 µM) came to 0.173; in experiment [2] (first compound 0.3162 µM), 0.157; in experiment [3] (first compound 0.01 µM) it was 0.704; in experiment [3] (first compound 0.03162 µM), 1.01; in experiment [3] (first compound 0.1 µM), 0.782; in experiment [3] (first compound 0.3162 µM), 0.631. Also, the relative viability amounted to 0.956 in experiment [4] (first compound 0.0128 µM); 1.11 in experiment [4] (first compound 0.04048 µM); 0.98 in experiment [4] (first compound 0.128 µM); 0.8 in experiment [4] (first compound 1.28 µM); 0.808 in experiment [5] (first compound 0.0128 µM); 0.869 in experiment [5] (first compound 0.04048 µM). Further, the relative viability in experiment [5] (first compound 0.128 µM) is 0.887; in experiment [5] (first compound 1.28 µM), 0.728.

As for UMC-11, the relative viability in experiment [1] (first compound 0.0128 µM) was determined as 0.961; in experiment [1] (first compound 0.04048 µM) it was 1.01; in experiment [1] (first compound 0.128 µM) it was 0.984; in experiment [1] (first compound 1.28 µM) it was 0.781; in experiment [2] (first compound 0.01 µM), 0.208; in experiment [2] (first compound 0.03162 µM), 0.18. Further, the relative viability in experiment [2] (first compound 0.1 µM) is 0.196; in experiment [2] (first compound 0.3162 µM), 0.174; in experiment [3] (first compound 0.01 µM), 0.553; in experiment [3] (first compound 0.03162 µM), 0.53; in experiment [3] (first compound 0.1 µM) it was 0.447; in experiment [3] (first compound 0.3162 µM), 0.179. Besides, the relative viability in experiment [4] (first compound 0.0128 µM) turned out to be 0.728; in experiment [4] (first compound 0.04048 µM), 0.687; in experiment [4] (first compound 0.128 µM), 0.668; in experiment [4] (first compound 1.28 µM), 0.655; in experiment [5] (first compound 0.0128 µM), 0.967; in experiment [5] (first compound 0.04048 µM), 1.07. Besides, the relative viability in experiment [5] (first compound 0.128 µM) was 0.943; in experiment [5] (first compound 1.28 µM), 0.806.

For the origin of these results see the supplement of paper PMC10307832.
